Results published in US7928134B2, “5-aryl-4,5-dihydro-(1H)-pyrazolines as cannabinoid CB1 receptor agonists” (Solvay Pharmaceuticals B.V., priority 2007, dated 2011).

Columns and labels:
[1] = molecular target: T1, human CB1 receptor (Homo sapiens, UniProt P21554); assay: In vitro cannabinoid-CB1 receptor (ant)agonism ([3H]-arachidonic acid release in CHO cells); type: cell-based; settings: human CB1 receptor cloned in CHO cells; for EC50: read-out: Functional CB1 assays Human CB1 agonism pEC50 (converted)
T1 construct: expressed in transfected cells; host or cells: CHO cells
Protocol: In Vitro Cannabinoid-CB1 Receptor (Ant)Agonism
In vitro CB1 receptor antagonism/agonism can be assessed with the human CB1 receptor cloned in CHO cells. CHO cells are grown in a Dulbecco's Modified Eagle's medium (DMEM) culture medium, supplemented with 10% heat-inactivated fetal calf serum. Medium is aspirated and replaced by DMEM, without fetal calf serum, but containing [^3H]-arachidonic acid and incubated overnight in a cell culture stove (5% CO2/95% air; 37° C.; water-saturated atmosphere). During this period [^3H]-arachidonic acid is incorporated in membrane phospholipids. On the test day, medium is aspirated and cells are washed three times using 0.5 ml DMEM, containing 0.2% bovine serum albumin (BSA). CB1 agonist stimulation leads to activation of PLA2 followed by release of [^3H]-arachidonic acid into the medium. This CB1 agonist-induced release is concentration-dependently antagonized by CB1 receptor antagonists, such as for example rimonabant.

[2] = molecular target: T2, human cannabinoid CB2 receptor (Homo sapiens, UniProt P34972); assay: In vitro affinity for cannabinoid-CB2 receptors ([3H]CP-55,940 radioligand binding); settings: membranes of CHO cells stably transfected with human CB2, read-out: receptor binding Human CB2 affinity pKi (converted)
T2 construct: expressed in transfected cells; host or cells: CHO cells, membrane preparations
Protocol: In Vitro Affinity for Cannabinoid-CB2 Receptors
(§1) The affinity of the compounds of the invention for cannabinoid CB2 receptors can be determined using membrane preparations of CHO cells in which the human cannabinoid CB2 receptor is stably transfected in conjunction with [^3H]CP-55,940 as radioligand. After incubation of a freshly prepared cell membrane preparation with the [^3H]-ligand, with or without addition of one or more compounds of the invention, separation of bound and free ligand is performed by filtration over glassfiber filters. Radioactivity on the filter is measured by liquid scintillation counting.

[3] = molecular target: T3, human cannabinoid CB1 receptor (Homo sapiens, UniProt P21554); assay: In vitro affinity for cannabinoid-CB1 receptors ([3H]CP-55,940 radioligand binding); settings: membranes of CHO cells stably transfected with human CB1, read-out: receptor binding Human CB1 affinity pKi (converted)
T3 construct: expressed in transfected cells; host or cells: Chinese hamster ovary (CHO) cells, membrane preparations
Protocol: In Vitro Affinity for Cannabinoid-CB1 Receptors
as §1, with “CB1” for “CB2”, “Chinese hamster ovary (CHO)” for “CHO”

T1 sequence (P21554 whole entry): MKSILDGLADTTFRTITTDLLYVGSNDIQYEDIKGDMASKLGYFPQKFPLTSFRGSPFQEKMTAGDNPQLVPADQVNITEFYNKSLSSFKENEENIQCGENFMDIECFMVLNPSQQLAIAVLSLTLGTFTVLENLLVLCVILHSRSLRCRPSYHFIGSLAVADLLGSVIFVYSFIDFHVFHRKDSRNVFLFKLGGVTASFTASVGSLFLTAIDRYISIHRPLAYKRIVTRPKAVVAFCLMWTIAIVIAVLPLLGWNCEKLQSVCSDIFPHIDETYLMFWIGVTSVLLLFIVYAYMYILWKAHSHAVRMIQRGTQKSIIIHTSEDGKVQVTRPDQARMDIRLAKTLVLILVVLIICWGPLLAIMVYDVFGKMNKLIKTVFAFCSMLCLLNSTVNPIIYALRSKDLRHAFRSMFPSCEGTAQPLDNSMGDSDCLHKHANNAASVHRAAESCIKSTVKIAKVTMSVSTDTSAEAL
T3 sequence (P21554 whole entry): as above
T2 sequence (P34972 whole entry): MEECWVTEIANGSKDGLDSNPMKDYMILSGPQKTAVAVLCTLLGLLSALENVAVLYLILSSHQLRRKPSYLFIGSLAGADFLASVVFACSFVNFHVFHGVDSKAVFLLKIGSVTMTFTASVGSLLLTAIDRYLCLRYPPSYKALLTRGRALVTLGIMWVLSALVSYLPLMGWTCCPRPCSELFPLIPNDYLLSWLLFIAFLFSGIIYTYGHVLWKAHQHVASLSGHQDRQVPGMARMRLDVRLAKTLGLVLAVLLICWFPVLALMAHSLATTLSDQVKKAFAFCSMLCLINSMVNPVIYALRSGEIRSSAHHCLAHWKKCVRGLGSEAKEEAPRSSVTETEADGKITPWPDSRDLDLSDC

SMILES | EC50 [1] | Ki [2] | Ki [3] | Functional CB1 assays Human CB1 agonism pEC50 [1]
CCCCCN1N=C(C(=O)NC(C)c2ccccc2)CC1c1ccccc1 (mixture of isomers) [Compound 14, N-(1-Phenyl-ethyl)-1-(n-pentyl)-5-phenyl-4,5-dihydro-(1H)-pyrazole-3-carboxamide] | 501 nM | 251 nM | 31.6 nM | –
CCCCCN1N=C(C(=O)NCc2cccc(C(F)(F)F)c2)CC1c1ccccc1 (racemic) [Compound 22] | 79.4 nM | 316 nM | 63.1 nM | –
CCCCN1N=C(C(=O)NC(C)(C)c2ccccc2)[C@@H](C)[C@@H]1c1ccccc1 (relative stereo) [Compound 37, N-(1-Phenyl-1-methyl-ethyl)-1-(n-butyl)-trans-4-methyl-5-phenyl-4,5-dihydro-(1H)-pyrazole-3-carboxamide] | 7.94 nM | 100 nM | 15.8 nM | –
CCCCCN1N=C(C(=O)NC2C3CC4CC(C3)CC2C4)CC1c1ccccc1 (stereo not drawn) [Compound 1, N-(Adamant-2-yl)-1-(n-pentyl)-5-phenyl-4,5-dihydro-(1H)-pyrazole-3-carboxamide] | – | 5.01 nM | 7.94 nM | 8.1
CCCCCN1N=C(C(=O)Nc2cccc3ccccc23)CC1c1ccccc1 (stereo not drawn) [Compound 4, N-(Napht-1-yl)-1-(n-pentyl)-5-phenyl-4,5-dihydro-(1H)-pyrazole-3-carboxamide] | 39.8 nM | 79.4 nM | 31.6 nM | –
CCCCCN1N=C(C(=O)NCc2cccnc2)CC1c1ccccc1 (stereo not drawn) [Compound 7, N-(Pyridin-3-ylmethyl)-1-(n-pentyl)-5-phenyl-4,5-dihydro-(1H)-pyrazole-3-carboxamide] | 631 nM | 501 nM | 126 nM | –
CCCCCN1N=C(C(=O)NC2CC3CCC2C3)CC1c1ccccc1 (stereo not drawn) [Compound 12, N-(Exo-bicyclo[2.2.1]hept-2-yl)-1-(n-pentyl)-5-phenyl-4,5-dihydro-(1H)-pyrazole-3-carboxamide] | 39.8 nM | 39.8 nM | 79.4 nM | –
CCCCCN1N=C(C(=O)NC23CC4CC(CC(C4)C2)C3)CC1c1ccccc1 (stereo not drawn) [Compound 27, N-(Adamantyl)-1-(n-pentyl)-5-phenyl-4,5-dihydro-(1H)-pyrazole-3-carboxamide] | 12.6 nM | 7.94 nM | 15.8 nM | –
CCCCCN1N=C(C(=O)NC(C)(C)c2ccccc2)CC1c1ccccc1 (stereo not drawn) [Compound 28, N-(1-Phenyl-1-methyl-ethyl)-1-(n-pentyl)-5-phenyl-4,5-dihydro-(1H)-pyrazole-3-carboxamide] | 7.94 nM | 100 nM | 6.31 nM | –
CCCCCN1N=C(C(=O)NC(C)(C)c2ccccc2)CC1c1ccccn1 (stereo not drawn) [Compound 32, N-(1-Phenyl-1-methyl-ethyl)-1-(n-pentyl)-5-(pyrid-2-yl)-4,5-dihydro-(1H)-pyrazole-3-carboxamide] | 39.8 nM | 10 nM | 7.94 nM | –
CCCCCN1N=C(C(=O)N[C@H]2C[C@H]3CC[C@]2(C)C3(C)C)CC1c1ccccc1F (stereo partly drawn) [Compound 101, N-[endo-(1R,2S,4R)-1,7,7-trimethylbicyclo[2.2.1]hept-2-yl]-1-(n-pentyl)-5-(2-fluorophenyl)-4,5-dihydro-(1H)-pyrazole-3-carboxamide] | 6.31 nM | 7.94 nM | 6.31 nM | –
CCCCN1N=C(C(=O)NC(C)(C)c2ccccc2)CC1c1ccccc1 (stereo not drawn) [Compound 102, N-(1-phenyl-1-methyl-ethyl)-1-(n-butyl)-5-phenyl-4,5-dihydro-(1H)-pyrazole-3-carboxamide] | 100 nM | 39.8 nM | 39.8 nM | –
CCCCN1N=C(C(=O)N[C@H]2C[C@H]3CC[C@]2(C)C3(C)C)CC1c1ccccc1 (stereo partly drawn) [Compound 103, N-[endo-(1R,2S,4R)-1,7,7-trimethylbicyclo[2.2.1]hept-2-yl]-1-(n-butyl)-5-phenyl-4,5-dihydro-(1H)-pyrazole-3-carboxamide] | 31.6 nM | 25.1 nM | 79.4 nM | –
CCCCCN1N=C(C(=O)N[C@H]2C[C@H]3CC[C@]2(C)C3(C)C)CC1c1ccccc1 (stereo partly drawn) [Compound 104, N-[endo-(1R,2S,4R)-1,7,7-trimethylbicyclo[2.2.1]hept-2-yl]-1-(n-pentyl)-5-phenyl-4,5-dihydro-(1H)-pyrazole-3-carboxamide] | 3.16 nM | 25.1 nM | 6.31 nM | –
CCCCCN1N=C(C(=O)NC(C)(C)c2ccc(F)cc2)CC1c1ccccc1 (stereo not drawn) [Compound 105, N-(1-(4-fluorophenyl)-1-methyl-ethyl)-1-(n-pentyl)-5-phenyl-4,5-dihydro-(1H)-pyrazole-3-carboxamide] | 1.58 nM | 126 nM | 15.8 nM | –
CC(C)(NC(=O)C1=NN(CC2CCCCC2)C(c2ccccc2)C1)c1ccc(F)cc1 (stereo not drawn) [Compound 108, N-[1-(4-fluorophenyl)-1-methyl-ethyl]-1-cyclohexylmethyl-5-phenyl-4,5-dihydro-(1H)-pyrazole-3-carboxamide] | 15.8 nM | 31.6 nM | 25.1 nM | –
CC(C)CN1N=C(C(=O)N[C@H]2C[C@H]3CC[C@]2(C)C3(C)C)CC1c1ccccc1 (stereo partly drawn) [Compound 110, N-[endo-(1R,2S,4R)-1,7,7-trimethylbicyclo[2.2.1]hept-2-yl]-1-isobutyl-5-phenyl-4,5-dihydro-(1H)-pyrazole-3-carboxamide] | 316 nM | 50.1 nM | 50.1 nM | –
